Data published in patent publication US20120190580A1, “TREATMENT OF PATIENTS AFTER STENT IMPLANTATION OR BALLOON DILATATION AND DRUG ELUTING STENTS” (MAX-PLANCK-GESELLSCHAFT ZUR FORDERUNG DER WISSENSCHAFTEN …, priority 2009, published 2012).

System: mesenteric arteries
Assay: Myograph: contractile responses to phenylephrine of mesenteric arteries from losartan-treated mice
Type: in vivo, mouse
Source text: A 129S7AB2.2 genomic BAC clone (bMQ-446B20; Sanger) was used to generate the targeting vector. Recombination in SW102 cell was employed to replace the miR-143 to miR-145 genomic region by a galK cassette (45) that was amplified by the primers flanking premiR-143 to pre-miR-145 ([…] GCggcgcgcctcagcactgtcctgctcctt; […] ACggcgcgcctgttgacaattaatcatcggca). The genomic sequence was inserted via gap repair into a pKO targeting vector containing a DTA expression cassette and 450 bp homology arms for BAC recombination resulting in a vector containing 6.5 kb of sequence 5′ of miR-143 and 5.5 kb 3′ of miR-145 from genomic sequence […] to […]. The AscI restriction sites flanking the galK cassette were used to replace the galK by a floxed IRESIacZ-NeoR cassette. The vector was electroporated into MPI II ES cells (46) and recombinant clones were identified. Recombinant ES cells were injected into blastocysts and transferred to pseudopregnant mice. Chimeric animals were backcrossed to C57BL/6 mice. Heterozygous animals were used to obtain WT and KO littermates. ES cells and mice were genotyped using an EcoRV restriction digest and a 5′ outside probe amplified from genomic DNA using oligonucleotides ([…]; […]). For chronic ACE or AT1 inhibition drinking water of mice was supplemented with 600 μg/ml captopril (Sigma#C-8856) and 100 µg/ml losartan (Fluka#61188) for at least 3 weeks. The experiments were performed in accordance with German legislation on protection of animals and were approved by the local governmental animal care committee (Regierungspraesidium Darmstadt).
Isolated segments of femoral and mesenteric arteries were examined in an isometric microvessel myograph as described previously (52). Mounted vessels were stimulated with 80 mM K+, 30 nM angiotensin II or increasing concentrations of phenylephrine (100 nM to 10 μM). The pCa-force relationships (13, 14) were obtained in permeabilized mouse femoral artery segments. In brief, arteries were permeabilized for 30 minutes using 0.5% Triton X-100 in relaxation solution. The latter consisted of (in mM): EGTA 1, Pipes 30, Na2ATP 5.16, MgCl2 7.31, sodium creatine phosphate 10 and potassium gluconate 74.1. For contraction curves the buffer was supplemented with 160 U/ml calmodulin and 100 U/ml creatine phosphokinase. The concentration of free Ca2+ ions was calculated as described previously (53).

CCCCc1nc(Cl)c(CO)n1Cc1ccc(-c2ccccc2-c2nn[nH]n2)cc1 [losartan]
phenylephrine induced contraction relative to K+ force (KO mice, losartan for 3 weeks): 96 % of the K+ force
enhancement of phenylephrine induced contraction (KO mice, losartan for 3 weeks, 3 μM phenylephrine): 214%
enhancement of phenylephrine induced contraction (KO mice, losartan for 3 weeks, 10 μM phenylephrine): 57%
phenylephrine-induced vasoconstriction (WT mice, losartan): did not affect
contractility on phenylephrine stimulation (arterial rings from KO animals, losartan-treated vs. KO untreated): significant enhancement
